Earlier results on 2 molecules are cited in publication PMC2967214 (Journal of the American Chemical Society, 2010).

For series [1] the following is noted: cited from earlier work.
For series [2] the following is noted: 25°C, 20 MHz; cited from earlier work.

Take `O=C(O)CN1CCN(CC(=O)O)CCN(CC(=O)O)CCN(CC(=O)O)CC1` [DOTA]: the “thermodynamic and kinetic stability of Gd3+ complex” value in series [1] is “high thermodynamic and kinetic stability”.
Take Gadomer 17: the r1 relaxivity in series [2] is 16.5 mM⁻¹ s⁻¹.
